Numbers after ± are expanded uncertainties.
Tests used:
[1] = 293.15 K; 101.33 kPa; Liquid; Vibrating tube method
[2] = refractive index (Na D-line) (dimensionless); conditions: 293.15 K; 101.33 kPa; Liquid; Standard Abbe refractometry

| mass density [1] [kg/m3] | refractive index [2] | Structure (SMILES) |
| --- | --- | --- |
| 802 ± 1 | 1.3955 ± 0.0008 | CC(C)CO [2-methyl-1-propanol] |
| 790 ± 1 | 1.3616 ± 0.0012 | CCO [ethanol] |
| 810.2 ± 1.1 | 1.413 ± 0.0008 | CC(C)CCO [3-methylbutan-1-ol] |
| 998.4 ± 1 | 1.3328 ± 0.0007 | O [water] |
